# Patent US20190092761A1, “Methods and Compositions for Inhibition of Bromodomain and Extratermial Proteins” (Convergene LLC, priority 2014, published 2019)
# Molecular target: T1, BRD4 bromodomains (Homo sapiens, UniProt O60885)
# T1 construct: fused on or other part: T7 phage capsid protein (fusion for phage display)
# Assay: BROMOscan bromodomain binding assay
# Conditions: Kd classes; BRD4 bromodomains displayed on T7 phage, competition with acetylated peptide ligand, 11 concentrations 0 to 10 μM; read-out: BROMOscan Relative Activity
# Method: Bromodomain assays were conducted to measure interactions between certain compounds and bromodomains. In order to measure compounds' direct activity against BRD4, dissociation constants ([…]) of the bromodomain inhibitors of the present invention were obtained using a biophysical binding assay, BROMOscan℠ (DiscoveRx, San Diego, Calif.), a modified phage-display system originally developed for kinases (Nat Biotechnol. 2005 March; 23(3):329-36).
# The assays were conducted according to BROMOscan protocol from Discover Rx. Briefly, BRD4 bromodomains expressed as a fusion capsid protein of T7 phage were bound to acetylated peptide ligand on a solid phase and competition bindings were performed. T7 phage strains displaying bromodomains were grown in parallel in 24-well blocks in an E. coli host derived from the BL21 strain. E. coli were grown to log-phase and infected with T7 phage from a frozen stock (multiplicity of infection=0.4) and incubated with shaking at 32° C. until lysis (90-150 minutes). The lysates were centrifuged (5,000×g) and filtered (0.2 μm) to remove cell debris. Streptavidin-coated magnetic beads were treated with biotinylated small molecule or acetylated peptide ligands for 30 minutes at room temperature to generate affinity resins for bromodomain assays. The liganded beads were blocked with excess biotin and washed with blocking buffer (SeaBlock (Pierce), 1% BSA, 0.05% Tween 20, 1 mM DTT) to remove unbound ligand and to reduce non-specific phage binding. Binding reactions were assembled by combining bromodomains, liganded affinity beads, and test compounds in 1× binding buffer (17% SeaBlock, 0.33×PBS, 0.04% Tween 20, 0.02% BSA, 0.004% Sodium azide, 7.4 mM DTT). Test compounds were prepared as 1000× stocks in 100% DMSO and subsequently diluted 1:10 in monoethylene glycol (MEG) to create stocks at 100× the screening concentration (resulting stock solution is 10% DMSO/90% MEG). The compounds were then diluted directly into the assays such that the final concentration of DMSO and MEG were 0.1% and 0.9%, respectively. All reactions were performed in polystyrene 96-well plates in a final volume of 0.135 ml. The assay plates were incubated at room temperature with shaking for 1 hour and the affinity beads were washed with wash buffer (1×PBS, 0.05% Tween 20). The beads were then re-suspended in elution buffer (1×PBS, 0.05% Tween 20, 2 μM non-biotinylated affinity ligand) and incubated at room temperature with shaking for 30 minutes. The bromodomain concentration in the eluates was measured by qPCR. Data was collected at 11 compound concentrations ranging from 0 to 10 μM. Kd values were then derived from a standard dose-response curve generated with Hill equation (Hill Slope was set to −1) and a non-linear least square fit with the Levenberg-Marquardt algorithm.
# Response=Background+Signal−Background/1+(Kd Hill Slope/Dose Hill Slope)
# Data is reported in Table 3 as Relative Activity, wherein a Kd of less than 100 nM is denoted by (+++), a Kd of between 100 nM and 1 μM is denoted by (++), and a Kd of 1 μM to greater than 10 μM is denoted by (+).
row,Kd [nM],Structure (SMILES)
1,< 100,Cc1noc(C)c1-c1ccc2[nH]c(=O)cc(NN3CCc4ccccc4C3)c2c1 [Example 1]
2,< 100,"Cc1noc(C)c1-c1ccc2[nH]c(=O)cc(NN(C)c3ccccc3)c2c1 [Example 5, 6-(3,5-dimethylisoxazol-4-yl)-4-(2-methyl-2-phenylhydrazinyl)-quinolin-2(1H)-one]"
3,< 100,Cc1noc(C)c1-c1ccc2[nH]c(=O)cc(NN(CC(=O)O)c3ccccc3)c2c1 [Example 6]
4,< 100,CC(=O)N(Nc1cc(=O)[nH]c2ccc(-c3c(C)noc3C)cc12)c1ccccc1 [Example 7]
5,< 100,Cc1noc(C)c1-c1cc2[nH]c(=O)c(C)c(NNc3ccccc3Cl)c2cc1-c1c(C)noc1C [Example 60]
6,< 100,Cc1noc(C)c1-c1ccc2[nH]c(=O)cc(NCc3cccc(Cl)c3)c2c1 [Example 108]
7,< 100,Cc1noc(C)c1-c1ccc2[nH]c(=O)cc(NCc3cccc(Br)c3)c2c1 [Example 112]
8,< 100,COc1cccc(CNc2cc(=O)[nH]c3ccc(-c4c(C)noc4C)cc23)c1 [Example 116]
9,100 to 1000,Cc1noc(C)c1-c1ccc2[nH]c(=O)cc(NCc3cccc(C(F)(F)F)c3)c2c1 [Example 120]
10,100 to 1000,Cc1noc(C)c1-c1ccc2[nH]c(=O)cc(NCc3cc(Cl)cc(Cl)c3)c2c1 [Example 124]
11,100 to 1000,Cc1noc(C)c1-c1ccc2[nH]c(=O)cc(NCc3ccc(Cl)cc3Cl)c2c1 [Example 128]
12,100 to 1000,Cc1noc(C)c1-c1ccc2[nH]c(=O)cc(NCc3ccc(Cl)cc3)c2c1 [Example 132]
13,100 to 1000,Cc1noc(C)c1-c1ccc2[nH]c(=O)cc(NCc3ccc(-c4ccccc4)cc3)c2c1 [Example 140]
14,100 to 1000,Cc1noc(C)c1-c1ccc2[nH]c(=O)cc(NCC3CCCCC3)c2c1 [Example 144]
15,< 100,"Cc1noc(C)c1-c1cc2c(NCc3ccccc3)cc(=O)[nH]c2cc1C(=O)N(C)C [Example 160, 4-(benzylamino)-6-(3,5-dimethylisoxazol-4-yl)-N,N-dimethyl-2-oxo-1,2-dihydroquinoline-7-carboxamide]"
16,< 100,"Cc1noc(C)c1-c1cc2c(NCc3ccccc3)cc(=O)[nH]c2cc1C(N)=O [Example 161, 4-(benzylamino)-6-(3,5-dimethylisoxazol-4-yl)-2-oxo-1,2-dihydroquinoline-7-carboxamide]"
17,< 100,"Cc1noc(C)c1-c1cc2[nH]c(=O)cc(NCc3ccccc3)c2cc1-c1c(C)noc1C [Example 162, 4-(benzylamino)-6,7-bis(3,5-dimethylisoxazol-4-yl)quinolin-2(1H)-one]"
18,< 100,"O=c1cc(NCc2cccc(Cl)c2)c2cc(-c3cccnc3)ccc2[nH]1 [Example 163, 4-(3-chlorobenzylamino)-6-(pyridin-3-yl)quinolin-2(1H)-one]"
19,< 100,"COc1cncc(-c2ccc3[nH]c(=O)cc(NCc4cccc(Cl)c4)c3c2)c1 [Example 164, 4-(3-chlorobenzylamino)-6-(5-methoxypyridin-3-yl)quinolin-2(1H)-one]"
20,> 1000,"COc1ncccc1-c1ccc2[nH]c(=O)cc(NCc3cccc(Cl)c3)c2c1 [Example 165, 4-(3-chlorobenzylamino)-6-(2-methoxypyridin-3-yl)quinolin-2(1H)-one]"
21,< 100,O=c1cc(NCc2cccc(Cl)c2)c2cc(-c3ccncc3)ccc2[nH]1 [Example 166]
22,< 100,"Cn1cc(-c2ccc3[nH]c(=O)cc(NCc4cccc(Cl)c4)c3c2)cn1 [Example 167, 4-(3-chlorobenzylamino)-6-(1-methyl-1H-pyrazol-4-yl)quinolin-2(1H)-one]"
23,< 100,"Cc1noc(C)c1-c1ccc2[nH]c(=O)cc(NCc3ccccc3)c2c1 [Example 170, 4-(benzylamino)-6-(3,5-dimethylisoxazol-4-yl)quinolin-2(1H)-one]"
24,< 100,COc1ccccc1CNc1cc(=O)[nH]c2ccc(-c3c(C)noc3C)cc12 [Example 171]
25,< 100,Cc1noc(C)c1-c1ccc2[nH]c(=O)cc(NCc3ccccc3F)c2c1 [Example 172]
26,< 100,Cc1noc(C)c1-c1ccc2[nH]c(=O)cc(N[C@H](C)c3ccccc3)c2c1 [Example 173]
27,100 to 1000,Cc1noc(C)c1-c1ccc2[nH]c(=O)cc(NCc3cccnc3)c2c1 [Example 175]
